Experimental data: ChEMBL document CHEMBL1201862, “PubChem BioAssay data set” (2004)
Calls of active or inactive are those of the source.

What was measured:
Estrogen receptor beta = Estrogen receptor beta (Homo sapiens, UniProt Q92731);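 also: recombinant ER-beta bound to coactivator SRC1 peptide in presence of estradiol agonist; inhibitors block coactivator peptide binding and lower the FRET signal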
Vero = experiment: host cell cytotoxicity of antiviral hits, dose response, cytotoxicity control for West Nile virus antiviral project, secondary assay (AID 1650); type: functional; settings: Chlorocebus sabaeus
[1] = M. tuberculosis H37Rv growth inhibitors, H37Rv strain (AID 1626); type: functional
[2] = target: Sphingosine 1-phosphate receptor 2 (Homo sapiens, UniProt O95136); experiment: Dose Response Cell Based Assay for Agonists of the S1P2 Receptor of Purchased Analogues. [Related pubchem assays: 729, 843, 854, 736 ]; type: functional
Sphingosine 1-phosphate receptor 2, sequence (O95136 whole entry): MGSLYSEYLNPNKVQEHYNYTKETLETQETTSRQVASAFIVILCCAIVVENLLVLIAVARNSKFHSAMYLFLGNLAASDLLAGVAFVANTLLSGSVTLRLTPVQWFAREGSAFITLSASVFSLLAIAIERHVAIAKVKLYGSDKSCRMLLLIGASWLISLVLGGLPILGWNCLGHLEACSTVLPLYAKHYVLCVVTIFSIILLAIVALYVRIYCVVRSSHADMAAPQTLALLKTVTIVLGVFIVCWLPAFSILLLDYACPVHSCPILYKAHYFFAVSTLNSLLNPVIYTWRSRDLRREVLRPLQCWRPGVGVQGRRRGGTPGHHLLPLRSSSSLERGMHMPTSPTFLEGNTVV

[3] = target: T1, COUP transcription factor 2 (Homo sapiens, UniProt P24468); experiment: Luminescence-based cell-based high throughput dose response assay to identify inhibitors of COUP-TFII (NR2F2).; type: functional;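 also: HEK293 cells transiently cotransfected with COUP-TFII expression vector and reporter; luciferase reporter luminescence driven by COUP-TFII from the pX2-168 reporter plasmid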
T1 sequence (P24468 whole entry): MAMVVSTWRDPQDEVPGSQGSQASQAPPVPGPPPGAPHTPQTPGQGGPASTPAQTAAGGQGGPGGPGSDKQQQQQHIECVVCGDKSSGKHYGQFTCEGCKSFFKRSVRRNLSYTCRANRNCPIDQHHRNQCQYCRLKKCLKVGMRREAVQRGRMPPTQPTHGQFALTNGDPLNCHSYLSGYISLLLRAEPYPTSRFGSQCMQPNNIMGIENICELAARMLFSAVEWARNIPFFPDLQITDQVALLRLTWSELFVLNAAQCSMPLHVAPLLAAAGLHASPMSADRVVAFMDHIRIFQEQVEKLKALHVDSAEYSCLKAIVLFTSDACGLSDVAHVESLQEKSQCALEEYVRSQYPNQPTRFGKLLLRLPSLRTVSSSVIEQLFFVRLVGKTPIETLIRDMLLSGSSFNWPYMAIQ

[4] = cytotoxicity in HEK-293T cells, dose response, cytotoxicity control for TCR NF-kB inhibitor project, luminescence, T-cell screen hits (AID 489026); type: functional, cell-based;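 also: cells exposed to compound about 14 hours before the viability readout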
Galanin receptor type 3 = target: T2, Galanin receptor type 3 (Homo sapiens, UniProt O60755); experiment: Fluorescence-based cell-based primary high throughput dose response assay to identify antagonists of the Galanin Receptor 3 (GalR3).; type: functional
T2 sequence (O60755 whole entry): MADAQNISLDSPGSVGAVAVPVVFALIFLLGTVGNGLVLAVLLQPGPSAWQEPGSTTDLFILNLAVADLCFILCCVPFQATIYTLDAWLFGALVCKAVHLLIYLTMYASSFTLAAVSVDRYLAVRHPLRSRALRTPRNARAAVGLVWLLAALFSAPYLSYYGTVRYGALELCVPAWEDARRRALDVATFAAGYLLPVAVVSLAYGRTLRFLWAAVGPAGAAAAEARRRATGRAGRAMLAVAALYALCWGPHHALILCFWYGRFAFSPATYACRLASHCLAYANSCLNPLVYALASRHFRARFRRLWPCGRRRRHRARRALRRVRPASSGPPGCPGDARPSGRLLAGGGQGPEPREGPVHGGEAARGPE

cells [5] = type: functional, cell-based; settings: HEK-CNG
Kallikrein-7 = Kallikrein-7 (Homo sapiens, UniProt P49862); experiment: Fluorescence Intensity-based biochemical primary high throughput dose response assay to identify activators of kallikrein-7 (K7) zymogen.
Kallikrein-7, sequence (P49862 whole entry, the tested form may be a part): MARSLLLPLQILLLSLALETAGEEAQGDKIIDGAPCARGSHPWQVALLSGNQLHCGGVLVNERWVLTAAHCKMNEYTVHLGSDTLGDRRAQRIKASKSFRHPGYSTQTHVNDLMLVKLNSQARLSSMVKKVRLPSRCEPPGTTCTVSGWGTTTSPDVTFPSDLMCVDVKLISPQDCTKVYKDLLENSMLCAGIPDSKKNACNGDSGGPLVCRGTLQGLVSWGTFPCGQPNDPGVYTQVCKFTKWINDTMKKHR

[6] = target: T3, Carboxy-terminal domain RNA polymerase II polypeptide A small phosphatase 1 (Homo sapiens, UniProt Q9GZU7); experiment: inhibitors of CTDSP1, concentration-response testing, biochemical assay, absorbance-based, actives from ultra-high-throughput screening (AID 540297); type: functional
T3 sequence (Q9GZU7 whole entry): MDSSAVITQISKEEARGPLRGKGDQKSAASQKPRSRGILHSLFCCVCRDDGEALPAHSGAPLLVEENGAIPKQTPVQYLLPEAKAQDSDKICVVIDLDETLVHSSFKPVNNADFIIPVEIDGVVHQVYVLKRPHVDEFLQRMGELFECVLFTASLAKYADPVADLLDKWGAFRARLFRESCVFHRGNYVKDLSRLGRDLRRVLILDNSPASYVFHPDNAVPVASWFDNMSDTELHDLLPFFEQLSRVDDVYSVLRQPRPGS

Caspase-6 = target: T4, Caspase-6 (Homo sapiens, UniProt P55212); experiment: human caspase-6 inhibitors, dose response, biochemical, VEID-R110 fluorescence, cherry-pick (AID 720632)
T4 sequence (P55212 whole entry): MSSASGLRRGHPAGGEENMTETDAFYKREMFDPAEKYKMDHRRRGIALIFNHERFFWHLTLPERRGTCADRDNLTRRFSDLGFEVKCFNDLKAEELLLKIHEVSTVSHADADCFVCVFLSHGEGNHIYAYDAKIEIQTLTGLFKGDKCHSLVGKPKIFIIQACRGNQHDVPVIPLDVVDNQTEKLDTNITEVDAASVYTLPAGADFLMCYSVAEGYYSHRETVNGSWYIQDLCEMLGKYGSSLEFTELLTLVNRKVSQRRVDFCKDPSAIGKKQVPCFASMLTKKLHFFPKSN

cells [7] = experiment: cells
[8] = target: T5, Mannose-6-phosphate isomerase (Homo sapiens, UniProt P34949); experiment: human PMI inhibitors, high substrate, primary screen, biochemical, fluorescence intensity, high mannose 6-phosphate (AID 1220)
T5 sequence (P34949 whole entry): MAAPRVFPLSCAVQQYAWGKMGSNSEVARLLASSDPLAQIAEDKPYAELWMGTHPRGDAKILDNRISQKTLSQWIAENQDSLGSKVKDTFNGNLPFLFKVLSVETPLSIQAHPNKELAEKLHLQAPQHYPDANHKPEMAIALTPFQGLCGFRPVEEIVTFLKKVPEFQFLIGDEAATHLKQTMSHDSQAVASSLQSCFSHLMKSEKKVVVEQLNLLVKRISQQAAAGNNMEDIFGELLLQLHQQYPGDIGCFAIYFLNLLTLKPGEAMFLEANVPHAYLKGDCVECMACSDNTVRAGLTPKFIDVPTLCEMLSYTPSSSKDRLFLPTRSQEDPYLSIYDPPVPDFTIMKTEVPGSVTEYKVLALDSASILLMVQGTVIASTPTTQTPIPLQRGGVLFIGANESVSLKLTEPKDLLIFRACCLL

[9] = target: T5, Mannose-6-phosphate isomerase; experiment: inhibitors of human PMI, primary screen, biochemical, fluorescence intensity, coupled assay (AID 1209)
Protein skinhead-1 = target: T6, Protein skinhead-1 (Caenorhabditis elegans, UniProt P34707); type: functional
T6 sequence (P34707 whole entry): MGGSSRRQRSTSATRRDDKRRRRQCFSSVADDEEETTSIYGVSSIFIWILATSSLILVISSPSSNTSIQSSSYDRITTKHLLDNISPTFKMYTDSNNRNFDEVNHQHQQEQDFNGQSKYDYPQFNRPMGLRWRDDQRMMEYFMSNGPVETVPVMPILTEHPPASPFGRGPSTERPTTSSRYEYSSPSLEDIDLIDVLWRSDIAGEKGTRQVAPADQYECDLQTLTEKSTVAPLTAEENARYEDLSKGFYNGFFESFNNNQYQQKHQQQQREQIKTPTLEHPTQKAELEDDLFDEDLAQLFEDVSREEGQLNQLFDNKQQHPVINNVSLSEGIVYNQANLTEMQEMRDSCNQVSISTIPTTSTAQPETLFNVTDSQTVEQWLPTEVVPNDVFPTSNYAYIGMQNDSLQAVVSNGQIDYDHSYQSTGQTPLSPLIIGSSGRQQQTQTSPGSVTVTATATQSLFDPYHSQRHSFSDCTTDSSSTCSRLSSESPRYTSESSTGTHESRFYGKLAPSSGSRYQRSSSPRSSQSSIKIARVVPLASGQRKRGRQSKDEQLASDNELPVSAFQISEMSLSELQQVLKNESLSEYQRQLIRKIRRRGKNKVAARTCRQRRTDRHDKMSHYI

[10] = HEp-2 cell cytotoxicity, dose response, cytotoxicity control for RSV inhibitor project, HTS (AID 2410); type: functional; settings: human respiratory syncytial virus
[11] = Shn3 3'UTR reporter inhibitors, dose response, cell-based, Clone20 osteoblasts, firefly luciferase, cherry-picked (AID 624132); type: functional;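 also: firefly luciferase luminescence from reporter carrying the Shn3 3'UTR in osteoblasts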
[12] = HepG2 cell cytotoxicity, dose response, cytotoxicity control for Shn3 inhibitor project, CellTiter-Glo, cherry-picked (AID 624134); type: functional, cell-based
[13] = control 3'UTR Renilla luciferase suppression, dose response, counter-screen for Shn3 inhibitor project, cell-based, Clone20-Shn3RL, cherry-picked (AID 624133); type: functional
H4 = experiment: Luminescence Cell-Based Dose Response HTS to Identify Activators of 5'UTR Stem-Loop Driven Prion Protein mRNA Translation in H4 Neuroglioblastoma Cells. [Related pubchem assays: 1829 (Project Summary), 1814 (Primary HTS)]; type: functional; settings: Homo sapiens
[14] = A Cell Based Secondary Assay To Explore Cytotoxicity of Compounds that Sensitize Mycobacterium Tuberculosis to Beta-Lactam Antibiotics.; type: functional
[15] = Luminescence Cell-Based Dose Response HTS to Identify Activators of Luciferase Translation or Activity in H4 […] Cells. [Related pubchem assays: 1829 (Project Summary), 1814 (Primary HTS)]; type: functional
[16] = Luminescence Cell-Based Dose Confirmation HTS to Identify Activators of 5'UTR Stem-Loop Driven Alpha-Synuclein mRNA Translation in H4 Neuroglioblastoma Cells. [Related pubchem assays: 1829 (Project Summary), 1814 (Primary HTS)]; type: functional

Estrogen receptor beta, sequence (Q92731 whole entry): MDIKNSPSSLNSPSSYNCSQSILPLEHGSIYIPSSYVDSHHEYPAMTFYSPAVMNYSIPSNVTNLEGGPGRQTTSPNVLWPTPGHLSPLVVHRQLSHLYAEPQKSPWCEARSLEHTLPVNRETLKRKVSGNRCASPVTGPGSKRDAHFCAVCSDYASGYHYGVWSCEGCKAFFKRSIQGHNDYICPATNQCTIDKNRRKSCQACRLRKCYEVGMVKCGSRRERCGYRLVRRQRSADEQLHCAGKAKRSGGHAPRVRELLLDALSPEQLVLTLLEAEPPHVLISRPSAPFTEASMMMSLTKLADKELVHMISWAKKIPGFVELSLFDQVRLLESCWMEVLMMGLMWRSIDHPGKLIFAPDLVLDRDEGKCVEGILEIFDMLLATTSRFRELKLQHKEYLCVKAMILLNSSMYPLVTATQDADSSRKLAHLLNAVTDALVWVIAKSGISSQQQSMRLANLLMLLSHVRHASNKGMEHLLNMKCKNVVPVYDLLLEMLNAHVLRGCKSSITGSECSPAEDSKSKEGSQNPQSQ

O=C(O)c1cc2sccc2s1
IC50 (Estrogen receptor beta): > 50 µM (not active)

CC(C)Oc1ccc(C(=O)Nc2ccc(Cl)c(S(=O)(=O)Nc3ccc(Cl)cc3)c2)cc1
CC50 (Vero): 28.1 µM (active)

CCCCC(=O)OCC(=O)Nc1ccc(SC(F)F)cc1
IC50 [1]: > 100 µM (active)

Cc1cc(C(=O)COc2ccc(C(N)=O)cc2)c(C)n1Cc1ccccc1
EC50 [2]: > 30 µM (not active)

COc1ccc(OC)c(CCNC(=O)Cn2nc(C)c3c(C)n(-c4ccc(C)cc4)nc3c2=O)c1
IC50 [3]: 2.61 µM (active)
IC50 [4]: > 80 µM (inactive)
IC50 (Galanin receptor type 3): 2.76 µM (active)
EC50 (cells [5]): > 29.9 µM (inactive)

CC[C@@H]1C(c2ccc(F)cc2)=NN(c2ccccc2)[C@H]1C(=O)N1CCOC1=O
EC50 (Kallikrein-7): 7.45 µM (active)

Cc1ccc(OCCC(=O)Nc2ccc(C)c(F)c2)cc1
IC50 [1]: > 100 µM (active)

CC(=O)c1ccc(OCC(=O)c2cc(C)n(Cc3ccccc3)c2C)cc1
EC50 [2]: > 30 µM (not active)

CCc1ccccc1NC(=O)CNC(=O)CCc1nc2sc3c(c2c(=O)[nH]1)CCCC3
IC50 [6]: 5.82 µM (active)
AC50 (Caspase-6): 24.8 µM (active)

COc1cccc(C2(C)NC(=O)N(CC(=O)c3cc(C)n(Cc4ccccc4)c3C)C2=O)c1 (stereo not drawn)
EC50 [2]: > 30 µM (not active)

Cc1ccc(S(=O)(=O)N2CCN(C)CC2)cc1-c1nnc2c3ccccc3c(C)nn12
IC50 (cells [7]): 23.1 µM (active)

O=C(O)CCNc1cc2ccccc2cc1C(=O)O
IC50 [8]: > 50 µM (not active)
IC50 [9]: > 50 µM (not active)
IC50 (Protein skinhead-1): > 100 µM (inactive)

CCOc1ccc(OCC)c(NC(=O)CN2CCN(c3cc(C)ccc3C)CC2)c1
IC50 [1]: > 100 µM (active)

Cc1cc(C)c2cc(C=O)c(Cl)nc2c1
IC50 [8]: 17.1 µM (active)
IC50 [9]: 14.2 µM (active)

CCN(c1ccccc1)S(=O)(=O)c1ccc(Cl)c(NC(=O)CSc2nc[nH]n2)c1
IC50 (cells [7]): 16.9 µM (active)
CC50 [10]: 46.3 µM (active)

CCC(C)C(NC(=O)CCCNC(=O)CCC(=O)OC1O[C@H]2OC3(C)CC[C@H]4[C@H](C)CCC(C1C)C24OO3)C(=O)O (stereo partly drawn)
AC50 [11]: 1.02 µM (active)
AC50 [12]: > 70 µM (inactive)
IC50 [3]: > 85.4 µM (inactive)
AC50 [13]: 0.683 µM (active)

Cc1nc(N=C(N)NC(=O)c2ccccc2)nc2ccccc12
EC50 (H4): 63.4 µM (active)
CC50 [14]: > 40 µM (active)
EC50 [15]: 28.4 µM (active)
EC50 [16]: 8.34 µM (active)

c1ccc(-c2cc(N3CCOCC3)nc3ccccc23)cc1
CC50 [14]: > 40 µM (active)

CS(=O)(=O)c1ccc(-c2sc3cc4c(cc3c2C(=O)NN2CCOCC2)OCO4)cc1
IC50 [6]: 14.6 µM (active)
EC50 (Kallikrein-7): > 23.2 µM (inactive)

COc1ccc(-c2ccc3c(n2)CCCN3Cc2ccccc2C(F)(F)F)cc1
EC50 (Kallikrein-7): 17.2 µM (inactive)

C(=N\Nc1ncnc2sc3c(c12)CCC3)/c1ccncc1
CC50 (Vero): > 100 µM (active)
CC50 [10]: 38.7 µM (active)

COc1cc(C)c2occ(/C(C)=N\O)c2c1
IC50 (cells [7]): 18.4 µM (active)
